According to US20120171660A1, “METHOD FOR SCREENING AND PURIFYING ENTEROVIRUS, METHOD FOR MASS-PRODUCING ENTEROVIRUS, AND METHOD FOR MANUFACTURING ENTEROVIRUS VACCINE” (priority 2011, published 2012):

Tests used:
[1] = target: EV71 binding to galectin-1 (Homo sapiens, UniProt P09382); experiment: ELISA, competition of monosaccharides with EV71 binding to galectin-1; parameters: species or system Enterovirus 71; settings: EV71 incubated with the sugar at different concentrations at 4° C. for 2 hours; galectin-1 coated plate
EV71 binding to galectin-1, sequence (P09382 2-135 limits assumed): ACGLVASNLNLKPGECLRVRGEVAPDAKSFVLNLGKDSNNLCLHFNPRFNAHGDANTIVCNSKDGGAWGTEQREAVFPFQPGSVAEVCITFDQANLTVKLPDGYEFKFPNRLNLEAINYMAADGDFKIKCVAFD
Experimental: ELISA was used to detect the competition between monosaccharides and EV71 or lectins. First, EV71 was incubated in a medium supplemented with galactose, glucose, N-acetyl galactosamines, sucrose, or mannose with different concentration (conc.) at 4° C. for 2 hours. […] It is because the monosaccharides bound on the EV71 may first bind to lectins, so the binding between lectins and EV71 may further be inhibited.

[2] = tested on: Coxsackievirus A16 (CA16); experiment: ELISA, CA16 binding to monosaccharide-PAA coated plate; settings: 10^6 PFU; plate coated with glucose-PAA or galactose-PAA; OD450
Experimental: (§1) In addition, specific bindings between different enteroviruses and monosaccharides were also detected. First, 10^6 PFU of enteroviruses, EV71, Coxsackievirus A16 (CA16), Coxsackievirus B3 (Cox B3, CB3), and Coxsackievirus B2 (Cox B2, CB2), were added in to a 96-well plate coated with glucose-PAA and galactose-PAA.

EV71 [3] = experiment: ELISA, EV71 binding to monosaccharide-PAA coated plate; parameters: species or system Enterovirus 71; settings: OD450; for specific binding to EV71 (FIG. 1D): 10^6 PFU EV71, plate coated with monosaccharide-PAA, versus control without EV71
Experimental: ELISA was also performed to detect the binding activities between EV71 and monosaccharides in the present embodiment, and the process of ELISA of the present embodiment is similar to that of Embodiment 1.
as §1

EV71 [4] = experiment: ELISA, biotin-labeled monosaccharide-PAA binding to EV71 captured on anti-EV71 antibody plate; parameters: species or system Enterovirus 71; settings: OD450; for binding of EV71 to monosaccharide (FIG. 1A): 10^6 PFU of EV71, biotin-labeled monosaccharide-PAA, compared to control without viruses or 10^6 PFU Dengue viruses; for binding activity between EV71 and monosaccharide versus amount of EV71 (FIG. 1B): 10 fold serial dilution of EV71 from 10^6 PFU to 10^2 PFU
Experimental: Enzyme-linked immunosorbent assay (ELISA) was used to detect the binding activities between EV71 and monosaccharides in the present embodiment. First, EV71 was added into a 96-well plate (Genesis, Taiwan) and bound to anti-EV71 antibody coated on the 96-well plate. Then, biotin-labeled monosaccharide polymers, such as glucose-PAA (polyacrylamide), mannose-PAA, galactose-PAA, N-acetyl-galactosamine-PAA (GalNAc-PAA), and N-acetyl-glucosamine-PAA (GlcNAc-PAA) were added into the 96-well plate, and reacted with EV71 at room temperature.

EV71 on SK-N-SH cells = experiment: Plaque assay, EV71 replication on SK-N-SH cells with monosaccharides; type: cell-based, Enterovirus 71; settings: EV71 incubated with 0.625 M, 0.125M, 0.25M sugar, 72 hours; for production of EV71 on SK-N-SH cells, virus titer (FIG. 4A): 1 hour at 37° C., no wash; for production of EV71 on SK-N-SH cells, absorption stage (FIG. 4B): unbound viruses washed away by PBS after 1 hour
Experimental: Plaque assay was used to understand the relation between the monosaccharides and the replication of EV71 in the present embodiment.
Host cells, SK-N-SH cells (2×10^5 cells/well), were seeded in a 24-well plate, and incubated for 16-18 hours to form a monolayer cell. SK-N-SH cells were infected with EV71, which was incubated with different concentrations of glucose, galactose or N-acetylgalactosamine (0.625 M, 0.125M, and 0.25M). After 1 hour incubation at 37° C., DMEM with 1.6% methylcellulose and 2% FBS was added to incubate at 37° C. for 72 hours.
First, SK-N-SH cells were infected with EV71, which were incubated with different concentrations of glucose, galactose or N-acetylgalactosamine (0.625 M, 0.125M, and 0.25M). After 1 hour incubation at 37° C., unbound viruses were washed away by PBS, DMEM with 1.6% methylcellulose and 2% FBS was added to incubate at 37° C. for 72 hours.
In addition, SK-N-SH cells were infected with EV71 in a glucose-containing medium. After 1 hour incubation at 37° C., viruses, which were unbound on the 24-well plate were washed away with PBS. Then, the infected host cells were incubated in a medium containing 0.25M glucose or galactose (supplemented with 1.6% methylcellulose and 2% FBS) at 37° C. for 72 hours.

[5] = tested on: Coxsackievirus B3 (Cox B3, CB3); experiment: ELISA, CB3 binding to monosaccharide-PAA coated plate; settings: 10^6 PFU; plate coated with glucose-PAA or galactose-PAA; OD450
Experimental: as §1

[6] = tested on: Coxsackievirus B2 (Cox B2, CB2); experiment: ELISA, CB2 binding to monosaccharide-PAA coated plate; settings: 10^6 PFU; plate coated with glucose-PAA or galactose-PAA; OD450
Experimental: as §1

influenza virus (Flu) = experiment: ELISA, influenza virus binding to galectin-1 coated plate; settings: 10^6 PFU of virus, OD450
CA16 = experiment: ELISA, CA16 binding to galectin-1 coated plate; parameters: species or system Coxsackievirus A16; settings: 10^6 PFU of virus, OD450
dengue virus (DV) = experiment: ELISA, dengue virus binding to galectin-1 coated plate; settings: 10^6 PFU of virus, OD450
Experimental: In addition, 106 PFU of different viruses including EV71, CA16, influenza virus (Flu) or dengue virus (DV) were added into a 96-well plate coated with galactin-1. Then, anti-EV71 antibody and HRP-conjugated goat anti-mouse IgG antibody were sequentially added into the 96-well plate.

EV71 [7] = experiment: ELISA, EV71 binding to galectin-1 coated plate; parameters: species or system Enterovirus 71
Experimental: Except the aforementioned lectins, the binding activity between EV71 and mammalian lectin such as galectin-1 was also detected in the present embodiment. First, a different amount of EV71 (10 fold serial dilution from 10^6 PFU to 10^4 PFU) was incubated in a 96-well plate coated with galectin-1.
It means that the monosaccharides such as glucose may first bind to EV71 during the formation of EV71 viral particles, and the monosaccharides bound on EV71 may further participate in the binding between EV71 and galactin-1.

## O=C[C@H](O)[C@@H](O)[C@@H](O)[C@H](O)CO [galactose]
[1]
  effect on binding between EV71 and lectins (galectin-1) by competition (FIG. 3): partially inhibited
[2]
  specific binding to CA16 (FIGS. 1E, 1F): can specifically bind
EV71 [3]
  specific binding to EV71 (FIG. 1D): can specifically bind
EV71 [3]; 10^6 PFU, plate coated with glucose-PAA or galactose-PAA
  binding activity to EV71 (FIGS. 1E, 1F): high binding activity
EV71 [4]
  binding of EV71 to monosaccharide (FIG. 1A): can bind
  binding activity between EV71 and monosaccharide versus amount of EV71 (FIG. 1B): enhanced as the amount of EV71 was increased
EV71 on SK-N-SH cells
  production of EV71 on SK-N-SH cells, virus titer (FIG. 4A): enhance the production of EV71
  production of EV71 on SK-N-SH cells, absorption stage (FIG. 4B): enhance the production of EV71
[5]
  binding activity to CB3 (FIGS. 1E, 1F): do not show any binding activity
[6]
  binding activity to CB2 (FIGS. 1E, 1F): do not show any binding activity

## CC(=O)N[C@H]1C(O)O[C@H](CO)[C@H](O)[C@@H]1O (some centres unmarked) [N-acetyl-galactosamine]
[1]
  effect on binding between EV71 and lectins (galectin-1) by competition (FIG. 3): partially inhibited
EV71 [3]
  specific binding to EV71 (FIG. 1D): can specifically bind
EV71 [4]
  binding of EV71 to monosaccharide (FIG. 1A): can bind
  binding activity between EV71 and monosaccharide versus amount of EV71 (FIG. 1B): enhanced as the amount of EV71 was increased
EV71 on SK-N-SH cells
  production of EV71 on SK-N-SH cells, virus titer (FIG. 4A): enhance the production of EV71
  production of EV71 on SK-N-SH cells, absorption stage (FIG. 4B): enhance the production of EV71

## CC(=O)N[C@H]1C(O)O[C@H](CO)[C@@H](O)[C@@H]1O (some centres unmarked) [N-acetyl-glucosamine]
EV71 [3]
  specific binding to EV71 (FIG. 1D): can specifically bind

## galactin-1: mammalian lectin such as galectin-1, coated on 96-well plate
Influenza virus (Flu)
  binding of galectin-1 to influenza virus (FIG. 2D): does not bind
CA16
  binding of galectin-1 to CA16 (FIG. 2D): specifically binds
Dengue virus (DV)
  binding of galectin-1 to dengue virus (FIG. 2D): does not bind
EV71 [7]; 10^6 PFU EV71 incubated in glucose-free medium
  binding to galectin-1 of EV71 incubated in sugar-free medium (FIG. 2E): cannot bind
EV71 [7]; 10^6 PFU of virus, galectin-1 coated plate, OD450
  binding of galectin-1 to EV71 (FIG. 2D): specifically binds
EV71 [7]; EV71 10 fold serial dilution from 10^6 PFU to 10^4 PFU, bound amount increases with EV71 added
  binding of EV71 to galectin-1 (FIG. 2C): binds
